Measured values as given in article PMC9081605, “A High-Throughput Toxicity Screen of 42 Per- and Polyfluoroalkyl Substances (PFAS) and Functional Assessment of Migration and Gene Expression in Human Placental Trophoblast Cells” (Frontiers in Toxicology, 2022).

Columns and labels:
Format in all cases: cell-based, human
JEG-3 cells [1] = experiment: Mitochondrial membrane potential, JC-10 assay (HTTS); conditions: for EC50: JEG-3 cells
From the text: (§1) JEG-3 human choriocarcinoma trophoblastic cells (American Type Culture Collection, VA, United States) were maintained in sterile-filtered Minimum Essential Media (MEM) supplemented with L-glutamine and phenol red (Thermo Fisher Scientific, MA, United States), 10% (v/v) heat-inactivated BenchMark Fetal Bovine Serum (Gemini Bio, CA, United States), 1% (v/v) sodium pyruvate (Thermo Fisher Scientific, MA, United States), and 1% (v/v) penicillin streptomycin (Sigma Aldrich, MO, United States). Cells were maintained in an incubator at 37°C with 5% CO2. JEG-3 cells were cultured in 10 cm tissue culture plates and cell passage numbers were recorded.
(§2) A total of 42 perfluoroalkyl substances (PFAS) were evaluated (Supplementary Table S1 contains source and purity). PFAS stock solutions were maintained in 100% methanol as previous work has shown certain PFAS degrade when stored in dimethyl sulfoxide (DMSO; [Gaballah et al., 2020]). […] The vehicle control group consisted of 97.5% media + 2.5% methanol to match the concentration of methanol in the media at the highest PFAS concentration tested (500 µM). Menadione (50–500 µM) was used as a positive control for cytotoxicity assessment. PFAS were de-identified and assigned random numbers to eliminate bias. Chemical exposure plate maps were designed so that all experimental conditions were tested in at least technical duplicates per plate. The outer edges of each plate received media alone and were excluded from all analyses to avoid edge effects. Each plate map included 14 technical replicates of the vehicle control group and 14 technical replicates of media only. Biological replicates were defined as separate 384 well plates tested on separate days using different cell passages. The experimental workflow is depicted in Supplementary Figure S1.
(§3) JEG-3 cells were counted using a Z2 Coulter Particle Counter (Beckman Coulter, CA, United States) and seeded at a density of 2,500 cells per well in black-walled, clear bottom 384 well plates (Corning, #3764) and allowed to adhere overnight. Approximately 24 h later, 384 well plates were imaged using an IncuCyte Zoom live cell imager (Essen BioScience Inc., MI, United States) to obtain baseline cellular confluence measurements prior to chemical dosing (0 h). Media was removed from wells and replaced with fresh media containing chemical treatments (exposure media) using a Viaflo liquid handling device (Integra Biosciences, NH, United States). Within 30 min of exposure media application, plates were again imaged for cellular confluence using the IncuCyte Zoom. Plates were incubated with exposure media for 24 h and then imaged again using the IncuCyte Zoom (24 h).
The JC-10 assay (Enzo Life Sciences, NY, United States) was used to evaluate mitochondrial membrane potential, the main bioenergetic parameter that regulates respiratory rate, ATP synthesis and reactive oxygen species generation. In cells with polarized mitochondrial membranes, the JC-10 dye localizes to the mitochondrial matrix and forms red fluorescent aggregates (540/590 nm). In cells with depolarized mitochondrial membranes, the JC-10 dye localizes in the cytoplasm and converts to a green fluorescent monomer (490/525 nm). Mitochondrial membrane potential was calculated as the ratio of the green and red fluorescence intensities within a well.
At the end of the 24 h exposure period, exposure media was removed from the plate. The plate wells were then washed with 1x phosphate buffered saline (1x PBS). After washing, the JC-10 reagent was suspended in fresh 1x PBS and 20 µl was added to each well at a final concentration of 20 μM (Enzo Life Sciences, NY, United States). The plate was incubated for 1 h at 37°C, and the fluorescence intensities at excitation/emission wavelengths of 490/525 nm and 540/590 nm were measured using a CLARIOstar (BMG Labtech, Offenburg, Germany) plate reader, respectively.
HTTS data were analyzed using a custom data analysis script in R v 1.2.5019 ([R Core Team, 2019]). […]

JEG-3 cells [2] = experiment: Proliferation, change in confluence 0-24 h (IncuCyte Zoom, HTTS); conditions: for Prolif ↑, lowest concentration at which the mean response value exceeded the mean control value ± 2*SD (rough binning) / Prolif ↓, lowest concentration at which the mean response value exceeded the mean control value ± 2*SD (rough binning): 24 h; for Prolif ↑, lowest concentration at which the mean response value exceeded the mean control value ± 2*SD (rough binning): increase; for cellular proliferation relative to vehicle control (rough binning): after 24 h, in at least one concentration; for Prolif ↓, lowest concentration at which the mean response value exceeded the mean control value ± 2*SD (rough binning): decrease
From the text: as §1, §2, §3
Plate well bottom images were evaluated using automated cell masking. The automated cell masking program was developed using IncuCyte Zoom base software. Cell masking parameters were defined using a training set of JEG-3 cell images obtained prior to conducting the experiments and following IncuCyte Zoom software recommendations. Briefly, the training images were obtained from cell culture plates with varying levels of JEG-3 cellular confluence (ranging from ∼15% confluent to ∼95% confluent). Parameters for the automated cell masking were first manually set by an experimenter for 3-6 images of low (∼15–30%), medium (∼30–70%), and high confluence (∼70% or greater). The training images were then evaluated by the automated masking program and manually checked to ensure the parameters were sufficiently strict to ignore background (e.g., blank space on the plate well bottom) but adequately sensitive to detect cell borders. The masking program was then implemented on the experimental plates to obtain a baseline cellular confluence measurement at 0 h and a second confluence measurement at 24 h. […]

JEG-3 cells [3] = experiment: CellTiter-Glo luminescent cell viability assay (HTTS); conditions: for Viability ↑, lowest concentration at which the mean response value exceeded the mean control value ± 2*SD (rough binning): 24 h, increase; for cell viability relative to vehicle control (rough binning): after 24 h, in at least one concentration
From the text: as §1, §2, §3
In the same plate evaluated for mitochondrial membrane potential, cell viability measures were duplexed using the CellTiter-Glo (CTG) Luminescent Cell Viability Assay (Promega, WI, United States). CTG reagent was added to each well at a volume of 20 µl. The plate was left at room temperature to incubate for 5 min and then 20 µl from each well was transferred to a low-volume, round-bottom, white 384 well plate (Corning, NY, United States). The CTG reagent lyses cellular and mitochondrial membranes and binds to adenosine triphosphate (ATP) released by cells, which produces a luminescence signal. The intensity of the luminescence was considered a proxy measure for the number of live cells in a well. The luminescence intensities were measured using the CLARIOstar plate reader.
HTTS data were analyzed using a custom data analysis script in R v 1.2.5019 ([R Core Team, 2019]). Briefly, raw data points corresponding to the confluence measurements at 0 and 24 h, the fluorescence intensities corresponding to MMP, and the relative luminescence units (RLU) corresponding to cell viability were imported directly from Microsoft Excel into the R programming environment, RStudio. Separate plates run on separate days using different JEG-3 passages were considered as biologic replicates. […]

[4] = JEG-3 cells, 24 h exposure, four-parameter fit, estimates meeting inclusion criteria, read-out: Proliferation EC50 ± SD

SMILES	Prolif ↑, lowest concentration at which the mean response value exceeded the mean control value ± 2*SD (rough binning) (JEG-3 cells [2]; JEG-3 cells) [µM]	cellular proliferation relative to vehicle control (rough binning) (JEG-3 cells [2])	Viability ↑, lowest concentration at which the mean response value exceeded the mean control value ± 2*SD (rough binning) (JEG-3 cells [3]; JEG-3 cells) [µM]	cell viability relative to vehicle control (rough binning) (JEG-3 cells [3])	also measured
O=C(O)C(F)(OC(F)(F)C(F)(F)C(F)(F)F)C(F)(F)F (centres unmarked) [Perfluoro-2-methyl-3-oxahexanoic acid]	450	increased cellular proliferation	–	–	minimal effective concentration (JEG-3 cells [1]; Homo sapiens, JEG-3, 24 h, read-out: MMP ↓, lowest concentration at which the mean response value exceeded the mean control value ± 2*SD (rough binning)): 375 µM; MMP relative to vehicle control (rough binning) (JEG-3 cells [1]; after 24 h, in at least one concentration): reduced MMP; EC50 (JEG-3 cells [2]; read-out: Proliferation EC50 ± SD (raw values), JEG-3 cells, raw model output including fits that did not meet inclusion criteria): 1110 ± 267 µM
O=C(O)C(F)(F)C(F)(F)C(F)(F)C(F)(F)C(F)(F)C(F)(F)C(F)(F)C(F)(F)C(F)(F)C(F)(F)C(F)(F)C(F)(F)F [Perfluorotridecanoic acid]	50	–	150	increased cell viability	Prolif ↓, lowest concentration at which the mean response value exceeded the mean control value ± 2*SD (rough binning) (JEG-3 cells [2]; JEG-3 cells): 450 µM; EC50 (JEG-3 cells [2]; [4]): 388 ± 125 µM
O=C([O-])C(F)(F)OC(F)(F)F.[Na+] [2,2-Difluoro-2-(trifluoromethoxy)acetate sodium salt]	50	increased cellular proliferation	–	–	–
O=C(O)C(F)(OC(F)(F)C(F)(F)C(F)(F)F)C(F)(F)F (centres unmarked) [Ammonium perfluoro-2-methyl-3-oxahexanoate]	–	–	–	–	minimal effective concentration (JEG-3 cells [2]; Homo sapiens, JEG-3, 24 h, read-out: Prolif ↓, lowest concentration at which the mean response value exceeded the mean control value ± 2*SD (rough binning)): 50 µM; EC50 (JEG-3 cells [2]; Homo sapiens, JEG-3, read-out: Proliferation EC50 ± SD (raw values), JEG-3 cells, raw model output including fits that did not meet inclusion criteria): 997 ± 952 µM
O=C(O)C(F)(F)C(F)(F)C(F)(F)C(F)(F)F [Perfluoropentanoic acid]	–	–	200	increased cell viability	EC50 (JEG-3 cells [1]; 24 h exposure, four-parameter fit, estimates meeting inclusion criteria, read-out: MMP EC50 ± SD): 175 ± 68.4 µM
O=S(=O)(O)CCC(F)(F)C(F)(F)C(F)(F)C(F)(F)C(F)(F)C(F)(F)F [6:2 Fluorotelomer sulfonic acid]	50	increased cellular proliferation	–	–	EC50 (JEG-3 cells [1]; raw model output including fits that did not meet inclusion criteria, read-out: MMP EC50 ± SD (raw values)): 70608 ± 10 µM
O=C(O)C(F)(F)C(F)(F)C(F)(F)C(F)(F)C(F)(F)C(F)F [7H-Perfluoroheptanoic acid]	–	reduced cellular proliferation	50	increased cell viability	EC50 (JEG-3 cells [3]; JEG-3 cells, 24 h exposure, four-parameter fit, estimates meeting inclusion criteria, read-out: Viability EC50 ± SD): 223 ± 60.2 µM; Prolif ↓, lowest concentration at which the mean response value exceeded the mean control value ± 2*SD (rough binning) (JEG-3 cells [2]; JEG-3 cells): 400 µM; EC50 (JEG-3 cells [2]; [4]): 294 ± 48.2 µM
